In patent publication US11667636B2, “Modulators of Mas-related G-protein receptor X2 and related products and methods” (Escient Pharmaceuticals, Inc., priority 2020, dated 2023):

How the values were obtained:
Human LAD2 cells = experiment: Mast Cell Beta-Hexosaminidase Release Assay (Cortistatin-14 induced degranulation); format: cell-based; settings: 500 nM Cortistatin-14, percent beta-hexosaminidase release, read-out: MRGPRX2 Antagonist Activity
Protocol: Human LAD2 cells (NIH) were maintained in an incubator at 37° C. with 5% CO2 and cultured in StemPro-34 serum-free media (Gibco 10639011) supplemented with 2 mM L-glutamine, 100 U/ml penicillin, […] streptomycin and 100 ng/ml SCF (Invitrogen PEP0860), at a concentration of 2-5×10^5 cells/mL, with hemidepletion every 1-2 weeks.
Cells were transferred to SCF-Free medium at 2.5×10^5 cells/mL and kept in an incubator overnight. On the day of the assay, cells were washed twice in Assay Buffer (final concentrations 10 mM HEPES, 137 mM NaCl, 5.6 mM D-glucose, 2.7 mM KCl, 1 mM MgCl, 1.8 mM CalCl2, 0.4 mM Na2HPO4.7H2O, 0.04% BSA, pH=7.4) and plated in a 96-well v-bottom plate at 20,000 cells per well in 80 μL Assay Buffer. Antagonist compounds solubilized at 10 mM in DMSO were diluted in Assay Buffer to 10× final desired concentrations as a 10-point curve (10 μM final top concentration with 1:3 serial dilutions) and 10 μL added per well. Plates were then incubated for 1 hour at 37° C. Agonists were diluted in Assay Buffer to 10× desired concentrations and 10 μL of the appropriate agonist added to each well. The final concentration of Cortistatin-14 (Tocris 3374) used in antagonist assays was 500 nM. Final concentrations of DMSO were kept consistent across the plate. Plates were then incubated in a warm air oven for 30 minutes at 37° C., followed by centrifugation at 4° C. for 5 minutes at 450×g. 50 μL supernatant from each well was then transferred to a 96-well flat bottom plate containing 100 μL substrate solution per well (3.5 mg/mL p-Nitrophenyl-N-acetyl-$-D-glucosaminide (Sigma 487052) in Citrate Buffer containing a final concentration of 40 mM Citric Acid, 20 mM Na2HPO4.7H2O, pH=4.5). To the cell pellets left in the remaining assay buffer, 150 μL 0.1% Triton-X-100 was then added to each well, resuspended by pipetting up and down, and 50 μL cell lysates transferred to a second 96-well flat bottom plate containing 100 μL substrate solution per well. Plates containing transferred supernatant and cell lysates were then incubated in a warm air oven for 90 minutes at 37° C. After incubation, 50 μL of 400 mM Glycine buffer (pH 10.7) was added into each well and the plate was read on a Molecular Devices SpectraMax iD5 plate reader (absorbance at 405 nm with reference filter at 620 nm). After background subtraction, the percentage degranulation (percent beta-hexosaminidase release) was calculated as 100×(supernatant values)/(supernatant+lysate values), followed by analysis using GraphPad Prism software to calculate an IC50 value for each compound.
The activity ranges are denoted as follows: “+++++” denotes antagonist activity <50 nM; “++++” denotes antagonist activity between 51 and 100 nM; “+++” denotes activity between 101 and 500 nM; “++” denotes activity between 501 and 1000 nM; and “+” denotes activity >1000 nM.

human MRGPRX2 = target: T1, human MRGPRX2 (Homo sapiens, UniProt Q96LB1); experiment: MRGPRX2 Activity: IP-One HTRF antagonist assay in CHO cells stably expressing human MRGPRX2, versus Cortistatin-14; format: cell-based; settings: versus 0.3 uM Cortistatin-14 agonist, IP-1 HTRF, read-out: MRGPR2 Antagonist Activity
T1 construct: expressed in transfected cells
T1 sequence (Q96LB1 1-330): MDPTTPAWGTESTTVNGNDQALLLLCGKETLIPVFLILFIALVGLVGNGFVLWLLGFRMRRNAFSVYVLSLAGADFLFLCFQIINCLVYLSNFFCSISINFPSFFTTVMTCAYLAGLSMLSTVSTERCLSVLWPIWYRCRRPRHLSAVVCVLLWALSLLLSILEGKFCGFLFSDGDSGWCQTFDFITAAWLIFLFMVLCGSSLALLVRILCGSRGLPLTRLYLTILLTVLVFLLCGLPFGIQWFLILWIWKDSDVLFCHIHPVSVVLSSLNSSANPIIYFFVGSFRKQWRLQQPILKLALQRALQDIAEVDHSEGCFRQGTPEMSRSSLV
Protocol: CHO cells stably transfected to express human MRGPRX2 were maintained in an incubator at 37° C. with 5% CO2 and grown in F12 (HAM) media with 10% fetal bovine serum (FBS), 1% Glutamax, 1% penicillin/streptomycin, 800 μg/mL Geneticin (G418), and 300 μg/mL Hygromycin B. Cells were plated in a 384-well assay plate at 20,000 cells per well in 12 μL of Opti-MEM and kept in an incubator overnight. On the day of the assay, compounds solubilized at 10 mM in DMSO were added as a 10-point curve (30 uM final top concentration with 1:3 serial dilutions) using a Tecan D300E digital dispenser. Agonists were diluted in assay buffer (final concentrations of 5.7 mM Tris-HCl, 43 mM NaCl, 50 mM LiCl, pH=8) and 2 μL of the agonist Cortistatin-14 (CPC Scientific, catalog CORT-002) are added to each well. Final concentrations of agonists were 0.3 μM Cortistatin-14. Final concentrations of DMSO were kept consistent across the plate. Plates were incubated in the dark for 1 hr at 37° C. and then for 1 hr at room temperature. IP-1 standards and HTRF detection reagents were added according to the IP-One-Gq Kit purchased from Cisbio (part number 62IPAPEJ) and incubated in the dark for 1 hr at room temperature. The plate was read on a Molecular Devices SpectraMax iD5 plate reader. The HTRF ratio was calculated from the raw data and graphed using GraphPad Prism to calculate an IC50 value for each compound.
The activity ranges are denoted as follows: “+++++” denotes antagonist activity <50 nM; “++++” denotes antagonist activity between 51 and 100 nM; “+++” denotes activity between 101 and 500 nM; “++” denotes activity between 501 and 1000 nM; and “+” denotes activity >1000 nM

Row | Structure (SMILES) | IC50 (Human LAD2 cells) | IC50 (human MRGPRX2)
1 | CS(=O)(=O)Nc1cccc(C(=O)N[C@H]2CC[C@@H](Nc3cccc4sc(C(F)(F)F)cc34)CC2)c1 [2-6] | < 50 nM | 51 to 100 nM
2 | O=C(N[C@H]1CC[C@@H](Nc2cccc3nc(C(F)F)cn23)CC1)c1ccccc1NCCF [2-222] | < 50 nM | 
3 | COc1ccc(C(=O)N[C@H]2CC[C@@H](Nc3cccc4nc(C(F)(F)F)cn34)CC2)cc1 [1-1] | < 50 nM | < 50 nM
4 | O=C(N[C@H]1CC[C@@H](Nc2cccc3nc(C(F)F)cn23)CC1)c1ccccc1NCC(F)F [2-142] | < 50 nM | < 50 nM
5 | O=C(N[C@H]1CC[C@@H](Nc2cccc3nc(C(F)(F)F)cn23)CC1)c1cccc(NCC(F)F)c1 [2-178] | < 50 nM | < 50 nM
6 | CNc1ccccc1C(=O)N[C@H]1CC[C@@H](Nc2cccc3nc(C(F)(F)F)cn23)CC1 [2-71] | < 50 nM | 
7 | COc1ccc(C(=O)N[C@H]2CC[C@@H](Nc3cccc4nc(C(F)F)cn34)CC2)c(NCC(F)(F)F)c1 [2-28] | < 50 nM | < 50 nM
8 | N#Cc1cc2c(N[C@H]3CC[C@@H](NC(=O)c4ccc(F)cc4)CC3)cccc2s1 [1-20] |  | 51 to 100 nM
9 | Cn1cc(C(=O)N[C@H]2CC[C@@H](Nc3cccc4nc(C(F)(F)F)cn34)CC2)c(C2CC2)n1 [2-191] |  | 51 to 100 nM
10 | O=C(N[C@H]1CC[C@@H](Nc2cccc3nc(C(F)F)cn23)CC1)c1ccc(NCC(F)F)cc1 [2-61] | < 50 nM | 

The next lines start with the values.

Row | IC50 (Human LAD2 cells) | IC50 (human MRGPRX2) | Structure (SMILES)
11 | < 50 nM | < 50 nM | O=C(N[C@H]1CC[C@@H](Nc2cccc3nc(C(F)(F)F)cn23)CC1)c1cccc2c(F)n[nH]c12 [2-153]
12 | < 50 nM | < 50 nM | O=C(N[C@H]1CC[C@@H](Nc2cccc3nc(C(F)F)cn23)CC1)c1ccccc1NCC(F)(F)F [2-143]
13 | < 50 nM | < 50 nM | O=C(N[C@H]1CC[C@@H](Nc2cccc3nc(C(F)F)cn23)CC1)c1ccnc2[nH]ccc12 [2-24]
14 | < 50 nM | < 50 nM | O=C(N[C@H]1CC[C@@H](Nc2cccc3nc(C(F)(F)F)cn23)CC1)c1cccc2cn[nH]c12 [2-10]
15 | < 50 nM | 101 to 500 nM | O=C(N[C@H]1CC[C@@H](Nc2cccc3sc(C(F)(F)F)cc23)CC1)c1ccc(F)cc1 [Example 1, 4-fluoro-N-((1s,4s)-4-((2-(trifluoromethyl)benzo[b]thiophen-4-yl)amino)cyclohexyl) benzamide]
16 | < 50 nM | < 50 nM | Cn1cc(C(=O)N[C@H]2CC[C@@H](Nc3cccc4nc(C(F)(F)F)cn34)CC2)c2ccccc21 [2-160]
17 | < 50 nM | < 50 nM | O=C(N[C@H]1CC[C@@H](Nc2cccc3nc(C(F)(F)F)cn23)CC1)c1cn(C(F)F)nc1C(F)F [2-228]
18 | < 50 nM | < 50 nM | Cn1cc(C(=O)N[C@H]2CC[C@@H](Nc3cccc4nc(C(F)(F)F)cn34)CC2)c(Cl)n1 [2-137]
19 | < 50 nM |  | O=C(N[C@H]1CC[C@@H](Nc2cccc3nc(C(F)(F)F)cn23)CC1)c1cccc2cnsc12 [2-52]
20 |  | 101 to 500 nM | CC(C)(O)Cn1cc(C(=O)N[C@H]2CC[C@@H](Nc3cccc4nc(C(F)F)cn34)CC2)c(Cl)n1 [2-283]
21 |  | 101 to 500 nM | Cc1ncc(C(=O)N[C@H]2CC[C@@H](Nc3cccc4nc(C(F)(F)F)cn34)CC2)n1C [2-134]
